Values belong to the molecule of their own block, whether it stands above or below them.
Assays:
[1] = biological target: T1, RBP-NN-His/RBP-TruncIIN-Strep co-expressed heterodimer (Thermotoga maritima, UniProt Q9X053); test: differential scanning calorimetry; type: binding; conditions: 10 mM sodium phosphate, 50 mM NaCl, pH 7.8; 50 μM protein, 0.5 mM ribose; irreversible unfolding; possible residual ribose carried over
T1 construct: gene TM_0958; halves co-expressed in E. coli BL21(DE3); N-terminal His6 tag on RBP-N (border also printed as 153), N-terminal Strep-tag on RBP-TruncII
T1 sequence (Q9X053 entry or part of it, one chain of several): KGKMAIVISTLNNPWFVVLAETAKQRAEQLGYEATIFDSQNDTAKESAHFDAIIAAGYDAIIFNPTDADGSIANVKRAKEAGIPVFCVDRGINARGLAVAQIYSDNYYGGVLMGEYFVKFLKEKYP

[2] = biological target: T2, RBP-N/RBP-Trunc mixed heterodimer (Thermotoga maritima, UniProt Q9X053); test: isothermal titration calorimetry; type: binding; conditions: 10 mM sodium phosphate, 50 mM NaCl, pH 7.8, 20°C; 100 μM protein; 1:1 model
T2 construct: gene TM_0958; separately expressed halves mixed equimolar in vitro; E. coli BL21(DE3); His tag likely; dimer of heterodimers
T2 sequence (Q9X053 entry or part of it, one chain of several): as above

[3] = biological target: T3, RBP-NN-His/RBP-CN-Strep co-expressed heterodimer (Thermotoga maritima, UniProt Q9X053); test: differential scanning calorimetry; type: binding; conditions: 10 mM sodium phosphate, 50 mM NaCl, pH 7.8; 50 μM protein, 0.5 mM ribose; irreversible unfolding
T3 construct: gene TM_0958; halves co-expressed in E. coli BL21(DE3); N-terminal His6 tag on RBP-N (border also printed as 153), N-terminal Strep-tag on RBP-C; lacks C-terminal cross-over strands; oligomeric state not determined
T3 sequence (Q9X053 entry or part of it, one chain of several): as above

[4] = biological target: T2, RBP-N/RBP-Trunc mixed heterodimer; test: differential scanning calorimetry; type: binding; conditions: 10 mM sodium phosphate, 50 mM NaCl, pH 7.8; 50 μM protein, 0.5 mM ribose; irreversible unfolding
[5] = biological target: RBP‐N/RBP‐Trunc mixed heterodimer (first generation) (Thermotoga maritima) (UniProt Q9X053); test: SEC-MALS; single purified proteins, and RBP‐N and RBP‐Trunc purified one by one and mixed in an equimolar ratio; Superdex 75 Increase 10/300 GL, 10 mM sodium phosphate, 50 mM sodium chloride, 0.02% sodium azide, pH 7.8, room temperature, 0.8 mL min^-1
[6] = biological target: the molecule itself; test: as above

dTm [1]: 9.1 °C
Kd [2]: 6.8 ± 0.7 µM
dTm [3]: 15.1 °C
dTm [4]: ~ 14 °C
Molecule: OC1OC[C@@H](O)[C@@H](O)[C@H]1O (stereo partly drawn) [ribose]

stoichiometry N [5]: 2
Molecule: RBP‐N/RBP‐Trunc mixed heterodimer (first generation) (from UniProt Q9X053 30-153; Q9X053 142-310) (complex)

B1: RBP‐Trunc (truncated T. maritima RBP, residues 142–310, first generation) (domain or fragment, Thermotoga maritima, UniProt Q9X053 142-310, looked up)
chain: MGEYFVKFLKEKYPDAKEIPYAELLGILSAQPTWDRSNGFHSVVDQYPEFKMVAQQSAEFDRDTAYKVTEQILQAHPEIKAIWCGNDAMALGAMKACEAAGRTDIYIFGFDGAEDVINAIKEGKQIVATIMQFPKLMARLAVEWADQYLRGERSFPEIVPVTVELVTRE
notes: also called RPB‐Trunc
stoichiometry N [6]: 2
